The target of experiment [1] is T1, Casein kinase I isoform delta (Homo sapiens, UniProt P48730). The experiment is described as follows: Inhibition of CK1delta (unknown origin) using Light-TopoIla(Thr1342) peptide as substrate incubated for 10 mins in presence of ATP by TR-FRET assay.
Target sequence in this assay (P48730 whole entry, canonical isoform): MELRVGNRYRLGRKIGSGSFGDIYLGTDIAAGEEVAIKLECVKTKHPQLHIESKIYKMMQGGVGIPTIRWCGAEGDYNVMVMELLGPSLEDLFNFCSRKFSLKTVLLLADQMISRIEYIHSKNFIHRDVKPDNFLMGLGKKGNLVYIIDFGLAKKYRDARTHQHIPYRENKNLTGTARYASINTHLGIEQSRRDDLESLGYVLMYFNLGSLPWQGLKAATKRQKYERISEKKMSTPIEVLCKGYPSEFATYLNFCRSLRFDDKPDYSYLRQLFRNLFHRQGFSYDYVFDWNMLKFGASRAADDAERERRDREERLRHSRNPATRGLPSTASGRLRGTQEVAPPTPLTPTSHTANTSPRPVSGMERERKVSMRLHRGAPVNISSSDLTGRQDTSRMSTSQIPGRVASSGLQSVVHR
A further experiment has as its system T-24. As to the kind of experiment: Antiproliferative activity against human T24 cells assessed as reduction in cell proliferation incubated for 72 hrs by Cell Titer Glo assay. The class given is functional, cell-based. As to conditions: T-24, 72 h. (In general: In ATP-based viability assays light output follows the ATP content of the culture.)
The next experiment deals with 5637. The experiment is described as follows: Antiproliferative activity against human 5637 cells assessed as reduction in cell proliferation incubated for 72 hrs by Cell Titer Glo assay. The class given is functional, cell-based. As to conditions: Homo sapiens, 5637, 72 h.
For the next experiment, the system named is UMUC3. The experiment is described as follows: Antiproliferative activity against human UMUC3 cells assessed as reduction in cell proliferation incubated for 72 hrs by Cell Titer Glo assay. It counts as functional, cell-based. As to conditions: UMUC3, 72 h.
A further experiment concerns U2OS. The experiment is described as follows: Antiproliferative activity against human U2OS cells assessed as reduction in cell proliferation incubated for 72 hrs by Cell Titer Glo assay. The class given is functional, cell-based.
For experiment [2], the target named is T1, Casein kinase I isoform delta. The experiment is described as follows: Inhibition of N-terminal His-tagged CK1delta (unknown origin) expressed in Escherichia coli using Light-TopoIla(Thr1342) peptide as substrate at 10 uM incubated for 10 mins in presence of ATP by TR-FRET assay. On the technique in general: Time-resolved FRET reads energy transfer from a long-lived donor to a nearby acceptor.
Target sequence in this assay (P48730 whole entry, looked up, canonical isoform): as the sequence (P48730 whole entry, canonical isoform) above

For experiment [3] the target is unchanged. The experiment is described as follows: Inhibition of CK1delta (unknown origin).
Target sequence in this assay (P48730 whole entry, canonical isoform): as above
Experiment [4] concerns the target Casein kinase I isoform epsilon (Homo sapiens, UniProt P49674). The experiment is described as follows: Inhibition of CK1epsilon (unknown origin).

Active and inactive are the calls of the source. The calls are words filed in the database; no cut-off is given here.

Sequence of Casein kinase I isoform epsilon (P49674 whole entry, canonical isoform): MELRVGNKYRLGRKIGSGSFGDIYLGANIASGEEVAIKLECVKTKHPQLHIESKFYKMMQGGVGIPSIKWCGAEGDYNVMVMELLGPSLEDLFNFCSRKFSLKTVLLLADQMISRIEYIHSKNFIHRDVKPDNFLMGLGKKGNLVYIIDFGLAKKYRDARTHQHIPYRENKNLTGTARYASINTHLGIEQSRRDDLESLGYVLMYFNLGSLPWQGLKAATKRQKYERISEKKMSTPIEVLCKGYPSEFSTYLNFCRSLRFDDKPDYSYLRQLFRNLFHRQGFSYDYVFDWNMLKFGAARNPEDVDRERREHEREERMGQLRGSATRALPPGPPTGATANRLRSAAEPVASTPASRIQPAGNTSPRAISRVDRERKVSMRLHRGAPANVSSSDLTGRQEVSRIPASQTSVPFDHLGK

The term IC50 denotes the midpoint of a concentration-inhibition curve. Regarding `N#Cc1ccc(CCn2cnc3c(NCc4nc5c(F)c(F)ccc5[nH]4)nc(N4CCOCC4)nc32)cc1`, the IC50 in experiment [1] was over 10000 nM.

As to `Fc1ccc2[nH]c(CNc3nc(N4CCOCC4)nc4c3ncn4Cc3ccc4ccccc4c3)nc2c1F`, the IC50 in experiment [1] is over 10000 nM. Take `Fc1ccc2[nH]c(CNc3nc(N4CCOCC4)nc4c3ncn4CCc3cccc(Br)c3)nc2c1F`: the IC50 in experiment [1] was over 10000 nM.

On to `Fc1ccc2[nH]c(CNc3nc(N4CCOCC4)nc4c3ncn4Cc3cccc4ccccc34)nc2c1F`, for which the half-maximal inhibitory concentration (IC50) in experiment [1] is over 10000 nM.

What is called EC50 is the concentration needed to bring the measured effect to its halfway point. Consider `Fc1cccc(-n2cnc3c(NCc4nc5c(F)c(F)ccc5[nH]4)nc(N4CCOCC4)nc32)c1`, for which the EC50 was 8 nM in the experiment on T-24, 6 nM with 5637, 26 nM in the experiment with UMUC3 and 9 nM in the experiment with U2OS. On to `CCOc1ccc(-n2cnc3c(NCc4nc5c(F)c(F)ccc5[nH]4)nc(N4CCOCC4)nc32)cc1`, for which the IC50 in experiment [1] is over 10000 nM. Turning to `Fc1ccc2[nH]c(CNc3nc(N4CCOCC4)nc4c3ncn4-c3ccc4ccccc4c3)nc2c1F`, the IC50 in experiment [1] was over 10000 nM. Also, the EC50 in the experiment with T-24 was 265 nM; in the experiment on 5637 it was 314 nM; with UMUC3 it was 540 nM; with U2OS it was 373 nM. On to `COc1ccc(-n2cnc3c(NCc4nc5c(F)c(F)ccc5[nH]4)nc(N4CCOCC4)nc32)cc1`, for which the EC50 in the experiment on T-24 stood at 95 nM; with 5637, 106 nM; with UMUC3 it was 5780 nM; in the experiment with U2OS, 164 nM. `Fc1cccc(Cn2cnc3c(NCc4nc5c(F)c(F)ccc5[nH]4)nc(N4CCOCC4)nc32)c1`: in experiment [1], the IC50 was over 10000 nM. `Fc1ccc2[nH]c(CNc3nc(N4CCOCC4)nc4c3ncn4CCc3ccc(C(F)(F)F)cc3)nc2c1F`: the IC50 in experiment [1] is over 10000 nM. Moreover, the inhibition result in experiment [2] was “inactive”. With `CC(C)Oc1ccc(-n2cnc3c(NCc4nc5c(F)c(F)ccc5[nH]4)nc(N4CCOCC4)nc32)cc1`, the IC50 in experiment [1] was over 10000 nM. Moreover, in experiment [2], the inhibition entry was “inactive”. Consider `Fc1ccc2[nH]c(CNc3nc(N4CCOCC4)nc4c3ncn4-c3ccc4ncsc4c3)nc2c1F`, for which the IC50 in experiment [1] was over 10000 nM. On the same count and under the same terms, the figure for `Fc1cc(F)cc(CCn2cnc3c(NCc4nc5c(F)c(F)ccc5[nH]4)nc(N4CCOCC4)nc32)c1` is over 10000 nM. As to `Fc1ccc2[nH]c(CNc3nc(N4CCOCC4)nc4c3ncn4CCc3cccc(Cl)c3)nc2c1F`, the IC50 in experiment [1] was over 10000 nM. Further, the inhibition entry in experiment [2] is “inactive”. Take `Fc1ccc2[nH]c(CNc3nc(N4CCOCC4)nc4c3ncn4CCc3cccc(C(F)(F)F)c3)nc2c1F`: in experiment [1], the IC50 was over 10000 nM. With `Fc1ccc2[nH]c(CNc3nc(N4CCOCC4)nc4c3ncn4-c3ccc4c(c3)OCCO4)nc2c1F`, the IC50 in experiment [1] was over 10000 nM. Regarding `Fc1cccc(CCn2cnc3c(NCc4nc5c(F)c(F)ccc5[nH]4)nc(N4CCOCC4)nc32)c1`, the IC50 in experiment [1] is over 10000 nM. For the compound `O=C(Nc1nc2cc(Cl)c(F)cc2[nH]1)c1coc(NC(=O)c2ccccc2OC(F)(F)F)n1`, the values for the IC50 in experiment [3] and in experiment [4] were 42 nM and 33 nM, respectively.

Values taken from ChEMBL document CHEMBL5338789, “Structure-Based Development of Isoform-Selective Inhibitors of Casein Kinase 1ε vs Casein Kinase 1δ” (J Med Chem, 2023).
